Data reported in US5750530A, “Pharmaceutical diketopiperazine compounds” (Xenova Limited, priority 1994, dated 1998).
pIC50: −log10 of the molar value. Where a name gives a salt, the structure may show the parent alone.

Biological target: PAI-1 (Homo sapiens, UniProt P05121)
Test: biochemical
Type: biochemical
Conditions: for pIC50: PAI chromogenic substrate assay
Protocol: The present compounds have been tested in a PAI functional assay. In this assay, a compound is incubated with PAI-1 prior to addition to the tPA assay system. Inhibition of PAI-1 results in the production of plasmin from plasminogen. In turn, plasmin cleaves the chromogenic substrate S2251 (Kabi Vitrum) producing pNA (p-nitroaniline) which is detected spectrophotometrically at 405 nm (K. Nilsson et al, Fibrinolysis (1987) 1, 163-168).
The present compounds were tested in a PAI chromogenic substrate assay. In the assay (K. Nilsson, Fibrinolysis (1987) 1, 163-168) each compound was incubated with PAI-1 prior to addition to the tPA assay system. […] In turn, the plasmin cleaved the chromogenic substrate S2251 (Kabi-Vitrum) producing pNA (p-nitroaniline) which was detected spectrophotometrically at 405 nm.
The degrees of inhibition observed in the chromogenic substrate assay at various concentrations, or the IC50 values, for each compound are presented in Table 1.

Chain of PAI-1 (P05121 24-402): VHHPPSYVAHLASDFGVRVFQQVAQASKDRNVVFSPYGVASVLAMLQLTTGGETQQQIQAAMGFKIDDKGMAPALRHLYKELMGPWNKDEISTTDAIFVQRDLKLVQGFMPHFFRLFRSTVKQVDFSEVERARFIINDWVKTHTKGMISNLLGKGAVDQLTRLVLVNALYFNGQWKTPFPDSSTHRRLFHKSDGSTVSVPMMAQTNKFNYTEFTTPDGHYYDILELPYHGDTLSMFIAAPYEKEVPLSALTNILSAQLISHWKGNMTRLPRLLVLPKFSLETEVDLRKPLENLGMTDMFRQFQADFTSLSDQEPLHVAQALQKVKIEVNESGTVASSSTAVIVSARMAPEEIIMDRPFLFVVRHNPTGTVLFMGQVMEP

Row | Structure (SMILES) | pIC50 | % Inhibition (20 μm) | % Inhibition (5 μm)
1 | CN(C)CCSc1ccc(/C=c2\[nH]c(=O)/c(=C/c3cccc(C(F)(F)F)c3)[nH]c2=O)cc1 [Compound 5423, (3Z,6Z)-6-(4-(2-Dimethylaminoethylthio)benzylidene)-3-(3-trifluoromethylbenzylidene)-2,5-piperazinedione] |  | 11% | 
2 | CN(C)CCSc1ccc(/C=c2\[nH]c(=O)/c(=C/c3cccc(C(F)(F)F)c3)[nH]c2=O)cc1 [Compound 5423.HCl, (3Z,6Z)-6-(4-(2-Dimethylaminoethylthio)benzylidene)-3-(3-trifluoromethylbenzylidene)-2,5-piperazinedione] | 4.70 | 35% | 2%
3 | CN(C)CCSc1ccc(/C=c2\[nH]c(=O)/c(=C/c3ccc(N(C)C)cc3)[nH]c2=O)cc1 [Compound 5424, (3Z,6Z)-3-(4-Dimethylaminobenzylidene)-6-(4-(2-dimethylaminoethylthio)benzylidene)-2,5-piperazinedione] | 4.86 | 23% | 6%
4 | CN(C)CCSc1ccc(/C=c2\[nH]c(=O)/c(=C/c3ccc(N(C)C)cc3)[nH]c2=O)cc1 [Compound 5424.HCl, (3Z,6Z)-3-(4-Dimethylaminobenzylidene)-6-(4-(2-dimethylaminoethylthio)benzylidene)-2,5-piperazinedione] | 4.80 | 45% | 8%
5 | CSc1ccc(/C=c2\[nH]c(=O)/c(=C/c3ccc(SCCN(C)C)cc3)[nH]c2=O)cc1 [Compound 5426, (3Z,6Z)-3-(4-(2-Dimethylaminoethylthio)benzylidene)-6-(4-methylthiobenzyidene)-2,5-piperazinedione] | 5.24 | 52% | 25%
6 | CSc1ccc(/C=c2\[nH]c(=O)/c(=C/c3ccc(SCCN(C)C)cc3)[nH]c2=O)cc1 [Compound 5426.HCl, (3Z,6Z)-3-(4-(2-Dimethylaminoethylthio)benzylidene)-6-(4-methylthiobenzyidene)-2,5-piperazinedione] | 5.27 | 55% | 35%
7 | CN(C)CCSc1ccc(/C=c2\[nH]c(=O)/c(=C/c3ccc(Cl)cc3)[nH]c2=O)cc1 [Compound 5437, (3Z,6Z)-3-(4-Chlorobenzylidene)-6-(4-(2-dimethylaminoethylthio)benzylidene)-2,5-piperazinedione] | 4.70 | 41% | 8%
8 | CN(C)CCSc1ccc(/C=c2\[nH]c(=O)/c(=C/c3ccc(Cl)cc3)[nH]c2=O)cc1 [Compound 5437.HCl, (3Z,6Z)-3-(4-Chlorobenzylidene)-6-(4-(2-dimethylaminoethylthio)benzylidene)-2,5-piperazinedione] | 4.78 | 44% | 18%
9 | COc1cccc(/C=c2\[nH]c(=O)/c(=C/c3ccc(SCCN(C)C)cc3)[nH]c2=O)c1 [Compound 5438, (3Z,6Z)-6-(4-(2-Dimethylaminoethylthio)benzylidene)-3-(3-methoxybenzylidene)-2,5-piperazinedione] |  | 18% | 
10 | COc1cccc(/C=c2\[nH]c(=O)/c(=C/c3ccc(SCCN(C)C)cc3)[nH]c2=O)c1 [Compound 5438.HCl, (3Z,6Z)-6-(4-(2-Dimethylaminoethylthio)benzylidene)-3-(3-methoxybenzylidene)-2,5-piperazinedione] |  |  | 3%
11 | CN(C)CCSc1ccc(/C=c2\[nH]c(=O)/c(=C/c3ccc(C(C)(C)C)cc3)[nH]c2=O)cc1 [Compound 5440, (3Z,6Z)-3-(4-(2-Dimethylaminoethylthio)benzylidene)-6-(4-tert-butylbenzylidene)-2,5-piperazinedione] |  | 30% | 11%

Continued, values first:

Row | pIC50 | % Inhibition (20 μm) | % Inhibition (5 μm) | Structure (SMILES)
12 | 4.70 |  |  | CN(C)CCSc1ccc(/C=c2\[nH]c(=O)/c(=C/c3ccccc3Br)[nH]c2=O)s1 [Compound 5313.HCl, (3Z,6Z)-6-(2-Bromobenzylidene)-3-(5-(2-dimethylaminoethylthio)-2-thienyl)methylene-2,5-piperazinedione]
13 | 5.46 |  |  | COc1cccc(/C=c2\[nH]c(=O)/c(=C/c3ccc(SCCN(C)C)s3)[nH]c2=O)c1 [Compound 5314, (3Z,6Z)-3-(5-(2-Dimethylaminoethylthio)-2-thienyl)methylene-6-(3-methoxybenzylidene)-2,5-piperazinedione]
14 | 5.02 |  |  | COc1cccc(/C=c2\[nH]c(=O)/c(=C/c3ccc(SCCN(C)C)s3)[nH]c2=O)c1 [Compound 5314.HCl, (3Z,6Z)-3-(5-(2-Dimethylaminoethylthio)-2-thienyl)methylene-6-(3-methoxybenzylidene)-2,5-piperazinedione]
15 | 4.70 |  |  | CN(C)CCSc1ccc(/C=c2\[nH]c(=O)/c(=C/c3cccc(C(F)(F)F)c3)[nH]c2=O)s1 [Compound 5315, (3Z,6Z)-3-(5-(2-Dimethylaminoethylthio)-2-thienyl)methylene-6-(3-trifluoromethylbenzylidene)-2,5-piperazinedione]
16 |  | 10% |  | CN(C)CCSc1ccc(/C=c2\[nH]c(=O)/c(=C/c3cccc(C(F)(F)F)c3)[nH]c2=O)s1 [Compound 5315.HCl, (3Z,6Z)-3-(5-(2-Dimethylaminoethylthio)-2-thienyl)methylene-6-(3-trifluoromethylbenzylidene)-2,5-piperazinedione]
17 |  | 10% |  | CN(C)CCSc1ccc(/C=c2\[nH]c(=O)/c(=C/c3cccc([N+](=O)[O-])c3)[nH]c2=O)s1 [Compound 5316, (3Z,6Z)-3-(5-(2-Dimethylaminoethylthio)-2-thienyl)methylene-6-(3-nitrobenzylidene)-2,5-piperazinedione]
18 |  | 43% | 23% | CC(C)N(CCSc1ccc(/C=c2\[nH]c(=O)/c(=C/c3ccccc3)[nH]c2=O)s1)C(C)C [Compound 5399, (3Z,6Z)-6-Benzylidene-3-(5-(2-diisopropylaminoethylthio)-2-thienyl)methylene-2,5-piperazinedione]
19 |  | 31% | 18% | CC(C)N(CCSc1ccc(/C=c2\[nH]c(=O)/c(=C/c3ccccc3)[nH]c2=O)s1)C(C)C [Compound 5399.HCl, (3Z,6Z)-6-Benzylidene-3-(5-(2-diisopropylaminoethylthio)-2-thienyl)methylene-2,5-piperazinedione]
20 | 5.35 | 60% | 61% | CN(C)CCSc1ccc(/C=c2\[nH]c(=O)/c(=C/c3ccccc3)[nH]c2=O)cc1[N+](=O)[O-] [Compound 5400, (3Z,6Z)-6-Benzylidene-3-(4-(2-dimethylaminoethylthio)-3-nitrobenzylidene)-2,5-piperazinedione]
21 | 4.70 | 52% | 26% | CN(C)CCSc1sc(/C=c2\[nH]c(=O)/c(=C/c3ccccc3)[nH]c2=O)cc1[N+](=O)[O-] [Compound 5403, (3Z,6Z)-6-Benzylidene-3-(5-(2-dimethylaminoethylthio)-4-nitro-2-thienyl)methylene-2,5-piperazinedione]
22 |  | 60% | 12% | CN(C)CCSc1sc(/C=c2\[nH]c(=O)/c(=C/c3ccccc3)[nH]c2=O)cc1[N+](=O)[O-] [Compound 5403.HCl, (3Z,6Z)-6-Benzylidene-3-(5-(2-dimethylaminoethylthio)-4-nitro-2-thienyl)methylene-2,5-piperazinedione]
23 |  | 21% | 3% | CN(C)CCSc1ccc(/C=c2\[nH]c(=O)/c(=C/c3cccc([N+](=O)[O-])c3)[nH]c2=O)cc1 [Compound 5422, (3Z,6Z)-6-(4-(2-Dimethylaminoethylthio)benzylidene)-3-(3-nitrobenzylidene)-2,5-piperazinedione]
24 |  | 28% | 5% | CN(C)CCSc1ccc(/C=c2\[nH]c(=O)/c(=C/c3cccc([N+](=O)[O-])c3)[nH]c2=O)cc1 [Compound 5422.HCl, (3Z,6Z)-6-(4-(2-Dimethylaminoethylthio)benzylidene)-3-(3-nitrobenzylidene)-2,5-piperazinedione]
25 | 5.43 | 57% | 37% | CN(C)CCSc1ccc(/C=c2\[nH]c(=O)/c(=C/c3cccc(Br)c3)[nH]c2=O)cc1 [Compound 5425, (3Z,6Z)-3-(3-Bromobenzylidene)-6-(4-(2-dimethylaminoethylthio)benzylidene)-2,5-piperazinedione]
26 | 5.66 | 47% | 56% | CN(C)CCSc1ccc(/C=c2\[nH]c(=O)/c(=C/c3cccc(Br)c3)[nH]c2=O)cc1 [Compound 5425.HCl, (3Z,6Z)-3-(3-Bromobenzylidene)-6-(4-(2-dimethylaminoethylthio)benzylidene)-2,5-piperazinedione]
27 | 4.82 | 46% | 5% | Cc1cccc(/C=c2\[nH]c(=O)/c(=C/c3ccc(SCCN(C)C)cc3)[nH]c2=O)c1 [Compound 5439, (3Z,6Z)-6-(4-(2-Dimethylaminoethylthio)benzylidene)-3-(3-methylbenzylidene)-2,5-piperazinedione]
28 | 4.77 | 35% | 6% | Cc1cccc(/C=c2\[nH]c(=O)/c(=C/c3ccc(SCCN(C)C)cc3)[nH]c2=O)c1 [Compound 5439.HCl, (3Z,6Z)-6-(4-(2-Dimethylaminoethylthio)benzylidene)-3-(3-methylbenzylidene)-2,5-piperazinedione]
